Measured values reported in patent publication US20250250299A1, “MACROCYCLIC IMMUNOMODULATORS” (Bristol-Myers Squibb Company, priority 2022, published 2025).
Where a SMILES comes first, the peptide text is derived from it. Bridges are numbered along the chain shown (N, C = ends). [ ]: non-standard residue; d: D form. The star is where a group is joined. X1 = O=C(O)CCCCCCCCCCCCCCCCC(=O)N[C@@H](CCC(=O)NCCOCCOCCOCCOCCOCCOCCOCCOCCOCCOCCOCCn1cc(C*)nn1)C(=O)O; Phe(4-COOH) = N[C@@H](Cc1ccc(C(=O)O)cc1)C(=O)O; Bip = N[C@@H](Cc1ccc(-c2ccccc2)cc1)C(=O)O; Phe(3-Me) = Cc1cccc(C[C@H](N)C(=O)O)c1; C12 diacid = O=C(O)CCCCCCCCCCC(=O)*; 4Pal = N[C@@H](Cc1ccncc1)C(=O)O; Cha = N[C@@H](CC1CCCCC1)C(=O)O; Carboxymethyl = O=C(O)C*; NMeA = CN[C@@H](C)C(=O)O; Orn = NCCC[C@H](N)C(=O)O; Dab = NCC[C@H](N)C(=O)O; Nva = CCC[C@H](N)C(=O)O; Abu = CC[C@H](N)C(=O)O; Dap = NC[C@H](N)C(=O)O; AEEA = NCCOCCOCC(=O)O

Molecular target: T1, human PD-1 (Jurkat-PD-1 cells; binding of PE-labeled human PD-L1-Ig) (Homo sapiens, UniProt Q15116)
T1 construct: expressed in transfected cells; host or cells: Jurkat (Jurkat-PD-1 / Jurkat-hPD-1)
Assay: Jurkat-PD-1 Cell Binding High-Content Screening Assay
Details: Jurkat cell line over-expressing human PD-1; compound 2 h at 37° C., then PE-labeled PD-L1-Ig 20 nM final, 1 hour; read-out: Jurkat hPD1 PDL1 IC50
Description: The ability of the compounds of formula (I) to bind to PD-1 was investigated using a Jurkat-PD-1 Cell Binding High-Content Screening Assay.
Phycoerythrin (PE) was covalently linked to the Ig epitope tag of human PD-L1-Ig and fluorescently-labeled PD-L1-Ig was used for binding studies with a Jurkat cell line over-expressing human PD-1 (Jurkat-PD-1). Briefly, 8×10^3 Jurkat-hPD-1 cells were seeded into 384 well plates in 20 μl of DIVEM supplemented with 10% fetal calf serum. 100 nl of compound was added to cells followed by incubation at 37° C. for 2 h. Then, 5 μl of PE-labeled PD-L1-Ig (20 nM final), diluted in DiVEM supplemented with 10 fetal calf serum. After 1 hour incubation, cells were fixed with […] in dPBS containing 10 µg/mL Hoechst 33342 and then washed 3× in 100 μl dPB S. Data was collected and processed using a Cell Insight NXT High Content Imager and associated software.

T1 sequence (Q15116 25-288): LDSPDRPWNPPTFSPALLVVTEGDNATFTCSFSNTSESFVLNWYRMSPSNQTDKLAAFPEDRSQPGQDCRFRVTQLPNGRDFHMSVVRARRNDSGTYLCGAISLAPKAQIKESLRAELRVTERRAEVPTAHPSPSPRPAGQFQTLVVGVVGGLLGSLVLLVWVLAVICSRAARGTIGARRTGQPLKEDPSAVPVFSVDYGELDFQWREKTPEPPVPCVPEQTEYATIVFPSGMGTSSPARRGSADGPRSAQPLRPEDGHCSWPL

Cc1cccc(C[C@@H]2NC(=O)[C@H](CC(=O)O)NC(=O)[C@H](Cc3ccc(OCC(=O)O)cc3)NC(=O)[C@H](CCNC(=O)CCCCCCCCCCC(=O)O)NC(=O)CSC[C@@H](C(N)=O)NC(=O)[C@H]([C@@H](C)O)NC(=O)[C@H](C(C)C)NC(=O)[C@H](CC3CCCCC3)NC(=O)[C@H](CCN)NC(=O)[C@@H](CC(C)C)NC(=O)[C@H](CCCN)NC(=O)[C@H](Cc3ccc(OCC(=O)O)cc3)NC(=O)[C@H](Cc3ccc(-c4ccccc4)cc3)NC(=O)[C@H](Cc3ccc(O)cc3)NC2=O)c1 [Compound 1034] ({CH2CO}-[Dab](C12 diacid)Y(Carboxymethyl)D[Phe(3-Me)]Y[Bip]Y(Carboxymethyl)[Orn][dL][Dab][Cha]VTC-NH2; thioether N-14) showed an IC50 of 170 nM.

With Cc1cccc(C[C@@H]2NC(=O)[C@H](CC(=O)O)NC(=O)[C@H](Cc3ccc(OCC(=O)O)cc3)NC(=O)[C@H](CCN)NC(=O)CSC[C@@H](C(=O)N[C@@H](CCN)C(N)=O)NC(=O)[C@H](Cc3ccc(OCc4cn(CCOCCOCCOCCOCCOCCOCCOCCOCCOCCOCCOCCNC(=O)CC[C@H](NC(=O)CCCCCCCCCCCCCCCCC(=O)O)C(=O)O)nn4)cc3)NC(=O)[C@H](C(C)C)NC(=O)[C@H](CC3CCCCC3)NC(=O)[C@H](CCN)NC(=O)[C@@H](CC(C)C)NC(=O)[C@H](CCCN)NC(=O)[C@H](Cc3ccc(OCC(=O)O)cc3)NC(=O)[C@H](Cc3ccc(-c4ccccc4)cc3)NC(=O)[C@H](Cc3ccc(OCC(=O)O)cc3)NC2=O)c1 [Compound 1012] ({CH2CO}-[Dab]Y(Carboxymethyl)D[Phe(3-Me)]Y(Carboxymethyl)[Bip]Y(Carboxymethyl)[Orn][dL][Dab][Cha]VY(X1)C[Dab]-NH2; thioether N-14) the IC50 was 380 nM.

With Cc1cccc(C[C@@H]2NC(=O)[C@H](CC(=O)O)NC(=O)[C@H](Cc3ccc(OCC(=O)O)cc3)NC(=O)[C@H](Cc3ccc(OCc4cn(CCOCCOCCOCCOCCOCCOCCOCCOCCOCCOCCOCCNC(=O)CC[C@H](NC(=O)CCCCCCCCCCCCCCCCC(=O)O)C(=O)O)nn4)cc3)NC(=O)CSC[C@@H](C(=O)N[C@@H](CCN)C(N)=O)NC(=O)[C@H](CCC(=O)O)NC(=O)[C@H](C(C)C)NC(=O)[C@H](CC3CCCCC3)NC(=O)[C@H](CCN)NC(=O)[C@@H](CC(C)C)NC(=O)[C@H](CCCN)NC(=O)[C@H](Cc3ccc(OCC(=O)O)cc3)NC(=O)[C@H](Cc3ccc(-c4ccccc4)cc3)NC(=O)[C@H](Cc3ccc(OCC(=O)O)cc3)NC2=O)c1 [Compound 1011] ({CH2CO}-Y(X1)Y(Carboxymethyl)D[Phe(3-Me)]Y(Carboxymethyl)[Bip]Y(Carboxymethyl)[Orn][dL][Dab][Cha]VEC[Dab]-NH2; thioether N-14) the IC50 was 340 nM.

For Cc1cccc(C[C@@H]2NC(=O)[C@H](CC(=O)O)NC(=O)[C@H](Cc3ccc(OCC(=O)O)cc3)NC(=O)[C@H](CN)NC(=O)CSC[C@@H](C(=O)N[C@@H](CCN)C(N)=O)NC(=O)[C@H](CCC(=O)O)NC(=O)[C@H](C(C)C)NC(=O)[C@H](CC3CCCCC3)NC(=O)[C@H](CCN)NC(=O)[C@@H](CC(C)C)NC(=O)[C@H](CCCN)NC(=O)[C@H](Cc3ccc(OCC(=O)O)cc3)NC(=O)[C@H](Cc3ccc(-c4ccccc4)cc3)NC(=O)[C@H](Cc3ccc(OCc4cn(CCOCCOCCOCCOCCOCCOCCOCCOCCOCCOCCOCCNC(=O)CC[C@H](NC(=O)CCCCCCCCCCCCCCCCC(=O)O)C(=O)O)nn4)cc3)NC2=O)c1 [Compound 1004] ({CH2CO}-[Dap]Y(Carboxymethyl)D[Phe(3-Me)]Y(X1)[Bip]Y(Carboxymethyl)[Orn][dL][Dab][Cha]VEC[Dab]-NH2; thioether N-14), the IC50 was 110 nM.

Compound CC[C@@H]1NC(=O)CSC[C@@H](C(=O)N[C@@H](CCN)C(N)=O)NC(=O)[C@H](CCC(=O)O)NC(=O)[C@H](C(C)C)NC(=O)[C@H](CC2CCCCC2)NC(=O)[C@H](CCN)NC(=O)[C@@H](CC(C)C)NC(=O)[C@H](CCCN)NC(=O)[C@H](Cc2ccc(C(=O)O)cc2)NC(=O)[C@H](Cc2ccc(-c3ccccc3)cc2)NC(=O)[C@H](Cc2ccc(OCc3cn(CCOCCOCCOCCOCCOCCOCCOCCOCCOCCOCCOCCNC(=O)CC[C@H](NC(=O)CCCCCCCCCCCCCCCCC(=O)O)C(=O)O)nn3)cc2)NC(=O)[C@H](Cc2cccc(C)c2)NC(=O)[C@H](CC(=O)O)NC(=O)[C@H](Cc2ccc(C(=O)O)cc2)NC1=O [Compound 1021] ({CH2CO}-[Abu][Phe(4-COOH)]D[Phe(3-Me)]Y(X1)[Bip][Phe(4-COOH)][Orn][dL][Dab][Cha]VEC[Dab]-NH2; thioether N-14) has an IC50 of 95 nM.

CC(C)C[C@H]1NC(=O)[C@H](C)N(C)C(=O)[C@H](CCCCNC(=O)CCCCCCCCCCC(=O)O)NC(=O)[C@H](Cc2ccc(-c3ccccc3)cc2)NC(=O)[C@H](C(C)C)NC(=O)[C@H](Cc2c[nH]c3ccccc23)NC(=O)[C@H](CC(=O)O)NC(=O)[C@H](Cc2ccncc2)NC(=O)[C@H](Cc2ccc(OCC(=O)O)cc2)NC(=O)CSC[C@@H](C(N)=O)NC(=O)[C@H](CO)NC(=O)[C@H](C(C)C)NC(=O)[C@H](CC2CCCCC2)NC(=O)[C@H](CC(N)=O)NC1=O [Compound 1039] ({CH2CO}-Y(Carboxymethyl)[4Pal]DWV[Bip]K(C12 diacid)[NMeA][dL]N[Cha]VSC-NH2; thioether N-14) was tested, and the IC50 was 870 nM.

Cc1cccc(C[C@@H]2NC(=O)[C@H](CC(=O)O)NC(=O)[C@H](Cc3ccc(OCC(=O)O)cc3)NC(=O)[C@H]([C@@H](C)O)NC(=O)CSC[C@@H](C(=O)N[C@@H](CCN)C(N)=O)NC(=O)[C@H](CCC(=O)O)NC(=O)[C@H](C(C)C)NC(=O)[C@H](CC3CCCCC3)NC(=O)[C@H](CCN)NC(=O)[C@@H](CC(C)C)NC(=O)[C@H](CCCN)NC(=O)[C@H](Cc3ccc(OCC(=O)O)cc3)NC(=O)[C@H](Cc3ccc(-c4ccccc4)cc3)NC(=O)[C@H](Cc3ccc(OCc4cn(CCOCCOCCOCCOCCOCCOCCOCCOCCOCCOCCOCCNC(=O)CC[C@H](NC(=O)CCCCCCCCCCCCCCCCC(=O)O)C(=O)O)nn4)cc3)NC2=O)c1 [Compound 1019] ({CH2CO}-TY(Carboxymethyl)D[Phe(3-Me)]Y(X1)[Bip]Y(Carboxymethyl)[Orn][dL][Dab][Cha]VEC[Dab]-NH2; thioether N-14) was tested, and the IC50 was 140 nM.

CC(C)C[C@H]1NC(=O)[C@H](C)N(C)C(=O)[C@H](C(C)C)NC(=O)[C@H](Cc2ccc(-c3ccccc3)cc2)NC(=O)[C@H](C(C)C)NC(=O)[C@H](Cc2c[nH]c3ccccc23)NC(=O)[C@H](CC(=O)O)NC(=O)[C@H](Cc2ccncc2)NC(=O)[C@H](Cc2ccc(OCC(=O)O)cc2)NC(=O)CSC[C@@H](C(N)=O)NC(=O)[C@H](CCCCNC(=O)CCCCCCCCCCC(=O)O)NC(=O)[C@H](C(C)C)NC(=O)[C@H](CC2CCCCC2)NC(=O)[C@H](CC(N)=O)NC1=O [Compound 1045] ({CH2CO}-Y(Carboxymethyl)[4Pal]DWV[Bip]V[NMeA][dL]N[Cha]VK(C12 diacid)C-NH2; thioether N-14) was tested, and the IC50 was 180 nM.

Compound CCC[C@@H]1NC(=O)CSC[C@@H](C(=O)N[C@@H](CCN)C(N)=O)NC(=O)[C@H](CCC(=O)O)NC(=O)[C@H](C(C)C)NC(=O)[C@H](CC2CCCCC2)NC(=O)[C@H](CCN)NC(=O)[C@@H](CC(C)C)NC(=O)[C@H](CCCN)NC(=O)[C@H](Cc2ccc(OCC(=O)O)cc2)NC(=O)[C@H](Cc2ccc(-c3ccccc3)cc2)NC(=O)[C@H](Cc2ccc(OCc3cn(CCOCCOCCOCCOCCOCCOCCOCCOCCOCCOCCOCCNC(=O)CC[C@H](NC(=O)CCCCCCCCCCCCCCCCC(=O)O)C(=O)O)nn3)cc2)NC(=O)[C@H](Cc2cccc(C)c2)NC(=O)[C@H](CC(=O)O)NC(=O)[C@H](Cc2ccc(OCC(=O)O)cc2)NC1=O [Compound 1018] ({CH2CO}-[Nva]Y(Carboxymethyl)D[Phe(3-Me)]Y(X1)[Bip]Y(Carboxymethyl)[Orn][dL][Dab][Cha]VEC[Dab]-NH2; thioether N-14) has an IC50 of 110 nM.

Cc1cccc(C[C@@H]2NC(=O)[C@H](CC(=O)O)NC(=O)[C@H](Cc3ccc(OCc4cn(CCOCCOCCOCCOCCOCCOCCOCCOCCOCCOCCOCCNC(=O)CC[C@H](NC(=O)CCCCCCCCCCCCCCCCC(=O)O)C(=O)O)nn4)cc3)NC(=O)[C@H](CCCNC(=N)N)NC(=O)CSC[C@@H](C(=O)N[C@@H](CCN)C(N)=O)NC(=O)[C@H](CCC(=O)O)NC(=O)[C@H](C(C)C)NC(=O)[C@H](CC3CCCCC3)NC(=O)[C@H](CCN)NC(=O)[C@@H](CC(C)C)NC(=O)[C@H](CCCN)NC(=O)[C@H](Cc3ccc(OCC(=O)O)cc3)NC(=O)[C@H](Cc3ccc(-c4ccccc4)cc3)NC(=O)[C@H](Cc3ccc(OCC(=O)O)cc3)NC2=O)c1 [Compound 1009] ({CH2CO}-RY(X1)D[Phe(3-Me)]Y(Carboxymethyl)[Bip]Y(Carboxymethyl)[Orn][dL][Dab][Cha]VEC[Dab]-NH2; thioether N-14) showed an IC50 of 720 nM.

For Cc1cccc(C[C@@H]2NC(=O)[C@H](CC(=O)O)NC(=O)[C@H](Cc3ccc(OCC(=O)O)cc3)NC(=O)[C@H](CN)NC(=O)CSC[C@@H](C(=O)N[C@@H](CCN)C(=O)NCCOCCOCC(N)=O)NC(=O)[C@H]([C@@H](C)O)NC(=O)[C@H](C(C)C)NC(=O)[C@H](CC3CCCCC3)NC(=O)[C@H](CCN)NC(=O)[C@@H](CC(C)C)NC(=O)[C@H](CCCN)NC(=O)[C@H](Cc3ccc(OCC(=O)O)cc3)NC(=O)[C@H](Cc3ccc(-c4ccccc4)cc3)NC(=O)[C@H](COCc3cn(CCOCCOCCOCCOCCOCCOCCOCCOCCOCCOCCOCCNC(=O)CC[C@H](NC(=O)CCCCCCCCCCCCCCCCC(=O)O)C(=O)O)nn3)NC2=O)c1 [Compound 1040] ({CH2CO}-[Dap]Y(Carboxymethyl)D[Phe(3-Me)]S(X1)[Bip]Y(Carboxymethyl)[Orn][dL][Dab][Cha]VTC[Dab][AEEA]-NH2; thioether N-14), the IC50 was 250 nM.
